The values below come from patent US20090209585A1, “CYCLOALKENE DERIVATIVES, PROCESS FOR PRODUCTION OF THE DERIVATIVES, AND USE OF THE SAME” (priority 2006, published 2009).

Usually solubility stands for the concentration that dissolves in the medium under given conditions. Read a high solubility as a readily soluble substance.

Structures are written as SMILES. In brackets after ≈: the same amount, converted by molar mass. Where a name gives a salt, the structure may show the parent alone. Some results are limits rather than exact numbers.

The nature of data set [1]: physchem. The conditions noted are these: saline, saline or isotonic.
The subject of data set [2] is Female BALB/c mice inoculated with LPS. Description: Evaluation of efficacy in mouse endotoxin shock model. It is filed as in vivo. The conditions noted are these: 10 mg/kg intravenously in saline, 1 hr before LPS 5 mg/kg intraperitoneally; survival at 5 days from LPS inoculation; 7 mice per group. The method, then:
Female BALB/c mice (6-week-old) were purchased and, after preliminary rearing for 1 week, divided into groups (7 per group). The compound of Example 3 was dissolved in saline immediately before administration, and intravenously administered at 10 mg/kg. For the control group, a solvent was administered in the same manner. One hour later, LPS (5 mg/kg) was intraperitoneally inoculated, and the survival of the mice was observed. The efficacy was evaluated based on the survival rate at 5 days from LPS inoculation.

Data set [3] is described as follows: Solubility according to Japanese Pharmacopoeia general notices, analyzed by HPLC. It is filed as physicochemical. The conditions noted are these: thermodynamic from solid, treated according to Japanese Pharmacopoeia. The method, then: The compounds of Examples 9, 12 and 15 were measured and placed in a glass container by 1 mg each, saline was added in small portions, and the mixture was stirred. The solubility was visually observed. In addition, as a conventional compound having a nitric oxide (NO) production inhibitory effect and an inflammatory cytokine production inhibitory effect, ethyl 6-[N-(2-chloro-4-fluorophenyl)sulfamoyl]cyclohex-1-ene-1-carboxylate (indicated as conventional compound in Table 1) was treated according to the Japanese Pharmacopoeia, general notices, and analyzed by HPLC to determined the solubility.

Compound `CCOC(=O)C1=CCCCC1S(=O)(=O)N(Cc1cc(C)c(OC(=O)CNC)c(C)c1)c1ccc(F)cc1Cl` (stereo not shown) [Example 21, ethyl 6-[((2-chloro-4-fluorophenyl){3,5-dimethyl-4-[(N-methylglycyl)oxy]benzyl}amino)sulfonyl]cyclohex-1-ene-1-carboxylate hydrochloride] displayed a solubility in data set [1] of no less than 1000 µg/mL. Consider `CCOC(=O)C1=CCCCC1S(=O)(=O)N(COC(=O)OCCCC(=O)O)c1ccc(F)cc1Cl` (stereo not shown) [Example 3, sodium 4-({[((2-chloro-4-fluorophenyl){[2-(ethoxycarbonyl)cyclohex-2-en-1-yl]sulfonyl}amino)methoxy]carbonyl}oxy)butanoate], for which the “number of survived mice (N = 7)” value in data set [2] was determined as 6.

`CCOC(=O)C1=CCCCC1S(=O)(=O)Nc1ccc(F)cc1Cl` (stereo not shown) [Conventional compound, ethyl 6-[N-(2-chloro-4-fluorophenyl)sulfamoyl]cyclohex-1-ene-1-carboxylate] showed a solubility in data set [3] of 10 µg/mL (≈ 27.6 µM). In data set [1], `CCOC(=O)C1=CCCCC1S(=O)(=O)N(Cc1cc(C)c(OC(=O)[C@@H]2CCCN2)c(C)c1)c1ccc(F)cc1Cl` (stereo partly drawn) [Example 23, 4-[((2-chloro-4-fluorophenyl){[2-(ethoxycarbonyl)cyclohex-2-en-1-yl]sulfonyl}amino)methyl]-2,6-dimethylphenyl L-prolinate] had a solubility of no less than 1000 µg/mL.
